# Laboratory results as given in ChEMBL document CHEMBL5042535, “Structure-Based Design and Synthesis of N-Substituted 3-Amino-β-Carboline Derivatives as Potent αβ-Tubulin Degradation Agents” (J Med Chem, 2022).
# Experiments:
# Type in all cases: functional, cell-based
# MCF7 = assay: Antiproliferative activity against human MCF7 cells assessed as reduction in cell viability measured after 24 hrs by MTT assay; settings: MCF7, 24 h
# HeLa = assay: Antiproliferative activity against human HeLa cells assessed as reduction in cell viability measured after 24 hrs by MTT assay
# Raji = assay: Antiproliferative activity against human Raji cells assessed as reduction in cell viability measured after 24 hrs by MTT assay
# NCI-H460 = assay: Antiproliferative activity against human NCI-H460 cells assessed as reduction in cell viability measured after 24 hrs by MTT assay; settings: NCI-H460, 24 h
# A2780S = assay: Antiproliferative activity against human A2780S cells assessed as reduction in cell viability measured after 24 hrs by MTT assay
SMILES,IC50 (MCF7),IC50 (HeLa),IC50 (Raji),IC50 (NCI-H460),IC50 (A2780S)
c1ccc(Oc2cccc(CNc3cc4c(cn3)[nH]c3ccccc34)c2)cc1,49 nM,51 nM,31 nM,62 nM,45 nM
c1cc2ccc3cccc4c(CNc5cc6c(cn5)[nH]c5ccccc56)cc(c1)c2c34,> 500 nM,> 500 nM,> 500 nM,> 500 nM,> 500 nM
CC(=O)Nc1ccc(Oc2cccc(CNc3cc4c(cn3)[nH]c3ccccc34)c2)cc1,27 nM,67 nM,15 nM,31 nM,11 nM
CC(=O)Nc1cccc(Oc2cccc(CNc3cc4c(cn3)[nH]c3ccccc34)c2)c1,76 nM,83 nM,45 nM,74 nM,58 nM
Cc1ccccc1Oc1cccc(CNc2cc3c(cn2)[nH]c2ccccc23)c1,59 nM,57 nM,32 nM,52 nM,62 nM
c1cc(CNc2cc3c(cn2)[nH]c2ccccc23)cc(Oc2ccc3ncccc3c2)c1,64 nM,93 nM,119 nM,234 nM,78 nM
N#Cc1ccccc1Oc1cccc(CNc2cc3c(cn2)[nH]c2ccccc23)c1,> 500 nM,> 500 nM,> 500 nM,> 500 nM,> 500 nM
c1ccc(Oc2ccc(Oc3cccc(CNc4cc5c(cn4)[nH]c4ccccc45)c3)cc2)cc1,> 500 nM,> 500 nM,> 500 nM,> 500 nM,> 500 nM
Fc1ccc(Oc2cccc(CNc3cc4c(cn3)[nH]c3ccccc34)c2)cc1,27 nM,39 nM,33 nM,76 nM,28 nM
Clc1ccccc1Oc1cccc(CNc2cc3c(cn2)[nH]c2ccccc23)c1,19 nM,63 nM,59 nM,74 nM,43 nM
COc1ccc(Oc2cccc(CNc3cc4c(cn3)[nH]c3ccccc34)c2)cc1,33 nM,19 nM,20 nM,67 nM,12 nM
CC(=O)Nc1ccccc1Oc1cccc(CNc2cc3c(cn2)[nH]c2ccccc23)c1,> 500 nM,> 500 nM,> 500 nM,> 500 nM,> 500 nM
Fc1cccc(Oc2cccc(CNc3cc4c(cn3)[nH]c3ccccc34)c2)c1,59 nM,71 nM,42 nM,50 nM,41 nM
c1cncc(Oc2cccc(CNc3cc4c(cn3)[nH]c3ccccc34)c2)c1,153 nM,209 nM,333 nM,333 nM,229 nM
c1ccc(-c2ccc(Oc3cccc(CNc4cc5c(cn4)[nH]c4ccccc45)c3)cc2)cc1,> 500 nM,> 500 nM,> 500 nM,> 500 nM,> 500 nM
COc1ccc(COc2cccc(CNc3cc4c(cn3)[nH]c3ccccc34)c2)cc1,> 500 nM,> 500 nM,> 500 nM,> 500 nM,> 500 nM
Fc1ccccc1Oc1cccc(CNc2cc3c(cn2)[nH]c2ccccc23)c1,93 nM,59 nM,16 nM,105 nM,73 nM
Cc1ccc(Oc2cccc(CNc3cc4c(cn3)[nH]c3ccccc34)c2)cc1,39 nM,56 nM,57 nM,165 nM,55 nM
CC(C)(C)CC(C)(C)c1ccc(Oc2cccc(CNc3cc4c(cn3)[nH]c3ccccc34)c2)cc1,> 500 nM,> 500 nM,> 500 nM,> 500 nM,> 500 nM
N#Cc1ccc(Oc2cccc(CNc3cc4c(cn3)[nH]c3ccccc34)c2)cc1,47 nM,46 nM,37 nM,48 nM,60 nM
COc1cc(Oc2cccc(CNc3cc4c(cn3)[nH]c3ccccc34)c2)cc(OC)c1OC,> 500 nM,> 500 nM,> 500 nM,> 500 nM,> 500 nM
c1cc(CNc2cc3c(cn2)[nH]c2ccccc23)cc(Oc2ccc3c(c2)OCCO3)c1,> 500 nM,> 500 nM,> 500 nM,> 500 nM,> 500 nM
COc1ccc(Oc2cccc(CNc3cc4c(cn3)[nH]c3ccccc34)c2)cc1OC,432 nM,266 nM,383 nM,> 500 nM,264 nM
COc1cccc(Oc2cccc(CNc3cc4c(cn3)[nH]c3ccccc34)c2)c1,109 nM,219 nM,178 nM,313 nM,148 nM
FC(F)(F)c1ccc(Oc2cccc(CNc3cc4c(cn3)[nH]c3ccccc34)c2)cc1,68 nM,81 nM,54 nM,47 nM,85 nM
COc1cc2c(c(OC)c1OC)-c1ccc(OC)c(=O)cc1[C@@H](NC(C)=O)CC2 [COLCHICINE],,16 nM,18 nM,12 nM,

# More lines, now with the values ahead:
IC50 (MCF7),IC50 (HeLa),IC50 (Raji),IC50 (NCI-H460),IC50 (A2780S),SMILES
> 500 nM,> 500 nM,> 500 nM,> 500 nM,> 500 nM,c1ccc(-c2ccc(CNc3cc4c(cn3)[nH]c3ccccc34)cc2)cc1
> 500 nM,> 500 nM,> 500 nM,> 500 nM,> 500 nM,CC(C)Oc1cccc(CNc2cc3c(cn2)[nH]c2ccccc23)c1
> 500 nM,> 500 nM,> 500 nM,> 500 nM,> 500 nM,c1cc(CNc2cc3c(cn2)[nH]c2ccccc23)cc(OC2CCCC2)c1
47 nM,41 nM,29 nM,44 nM,44 nM,Cc1cccc(Oc2cccc(CNc3cc4c(cn3)[nH]c3ccccc34)c2)c1
> 500 nM,> 500 nM,> 500 nM,> 500 nM,> 500 nM,CCCNc1cc2c(cn1)[nH]c1ccccc12
73 nM,93 nM,43 nM,87 nM,63 nM,c1ccc2c(c1)[nH]c1cnc(NCc3ccsc3)cc12
> 500 nM,> 500 nM,> 500 nM,> 500 nM,> 500 nM,CCOc1cccc(CNc2cc3c(cn2)[nH]c2ccccc23)c1
> 500 nM,> 500 nM,> 500 nM,> 500 nM,> 500 nM,c1ccc(COc2cccc(CNc3cc4c(cn3)[nH]c3ccccc34)c2)cc1
> 500 nM,> 500 nM,> 500 nM,> 500 nM,> 500 nM,CC(C)COc1cccc(CNc2cc3c(cn2)[nH]c2ccccc23)c1
> 500 nM,> 500 nM,> 500 nM,> 500 nM,> 500 nM,c1ccc2c(CNc3cc4c(cn3)[nH]c3ccccc34)cccc2c1
> 500 nM,> 500 nM,> 500 nM,> 500 nM,> 500 nM,CC(C)=CCOc1cccc(CNc2cc3c(cn2)[nH]c2ccccc23)c1
397 nM,> 500 nM,242 nM,> 500 nM,92 nM,c1ccc2c(c1)[nH]c1cnc(NC3CCCC3)cc12
> 500 nM,> 500 nM,> 500 nM,> 500 nM,> 500 nM,CCCCOc1cccc(CNc2cc3c(cn2)[nH]c2ccccc23)c1
> 500 nM,> 500 nM,> 500 nM,> 500 nM,> 500 nM,c1ccc2cc(CNc3cc4c(cn3)[nH]c3ccccc34)ccc2c1
> 500 nM,> 500 nM,> 500 nM,> 500 nM,> 500 nM,c1ccc(-c2cccc(CNc3cc4c(cn3)[nH]c3ccccc34)c2)cc1
> 500 nM,> 500 nM,382 nM,> 500 nM,> 500 nM,CC(C)=CCNc1cc2c(cn1)[nH]c1ccccc12
> 500 nM,> 500 nM,> 500 nM,> 500 nM,> 500 nM,COc1ccc(CNc2cc3c(cn2)[nH]c2ccccc23)cn1
> 500 nM,> 500 nM,> 500 nM,> 500 nM,> 500 nM,c1cc(CNc2cc3c(cn2)[nH]c2ccccc23)cc(OCC2CC2)c1
513 nM,> 500 nM,220 nM,340 nM,175 nM,CCCCNc1cc2c(cn1)[nH]c1ccccc12
> 500 nM,> 500 nM,> 500 nM,> 500 nM,> 500 nM,CCCOc1cccc(CNc2cc3c(cn2)[nH]c2ccccc23)c1
> 500 nM,> 500 nM,> 500 nM,> 500 nM,> 500 nM,c1ccc2c(CNc3cc4c(cn3)[nH]c3ccccc34)c[nH]c2c1
> 500 nM,> 500 nM,> 500 nM,> 500 nM,> 500 nM,c1ccc2c(c1)[nH]c1cnc(NCC3CCCCC3)cc12
> 500 nM,> 500 nM,> 500 nM,> 500 nM,> 500 nM,CC(C)CNc1cc2c(cn1)[nH]c1ccccc12
> 500 nM,> 500 nM,> 500 nM,> 500 nM,> 500 nM,c1ccc2ncc(CNc3cc4c(cn3)[nH]c3ccccc34)cc2c1
71 nM,66 nM,73 nM,342 nM,93 nM,c1ccc2c(c1)[nH]c1cnc(NCc3ccoc3)cc12
